From patent US8580794B2 (AbbVie Inc., priority 2009, dated 2013)

The compounds below were run against GST-Bc1-2 (Homo sapiens, UniProt P10415) (assay: Time Resolved-Fluorescence Resonance Energy Transfer (TR-FRET) Bcl-2 binding assay with F-Bak peptide probe). Settings: GST-Bcl-2 1 nM, F-Bak probe 100 nM, Tb-anti-GST 1 nM; '<' = below limit of detection; read-out: TR-FRET Bcl-2 Binding Ki.
GST-Bc1-2, sequence (P10415 whole entry): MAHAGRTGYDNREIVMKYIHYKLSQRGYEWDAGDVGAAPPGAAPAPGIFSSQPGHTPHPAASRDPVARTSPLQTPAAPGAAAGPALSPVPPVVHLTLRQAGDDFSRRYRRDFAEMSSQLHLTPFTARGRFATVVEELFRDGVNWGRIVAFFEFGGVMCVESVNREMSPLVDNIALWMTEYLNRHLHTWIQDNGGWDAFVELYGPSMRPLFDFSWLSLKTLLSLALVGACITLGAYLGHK

**Q.** `CN1CCC(COc2ncc(S(=O)(=O)NC(=O)c3ccc(N4CCN(CC5=C(c6ccc(Cl)cc6)CC(C)(C)CC5)CC4)cc3Oc3cnc4[nH]ccc4c3)cc2Br)CC1` [Example 47, N-({5-bromo-6-[(1-methylpiperidin-4-yl)methoxy]pyridin-3-yl}sulfonyl)-4-(4-{[2-(4-chlorophenyl)-4,4-dimethylcyclohex-1-en-1-yl]methyl}piperazin-1-yl)-2-(1H-pyrrolo[2,3-b]pyridin-5-yloxy)benzamide] was tested. Which Ki did it give?
**A.** < 0.01 nM

**Q.** With `CN1CCC(COc2ccc(S(=O)(=O)NC(=O)c3ccc(N4CCN(CC5=C(c6ccc(Cl)cc6)CC(C)(C)CC5)CC4)cc3Oc3cnc4[nH]ccc4c3)cc2[N+](=O)[O-])CC1` [Example 48, 4-(4-{[2-(4-chlorophenyl)-4,4-dimethylcyclohex-1-en-1-yl]methyl}piperazin-1-yl)-N-({4-[(1-methylpiperidin-4-yl)methoxy]-3-nitrophenyl}sulfonyl)-2-(1H-pyrrolo[2,3-b]pyridin-5-yloxy)benzamide] as the compound, how does the Ki read?
**A.** < 0.01 nM

**Q.** Which Ki does the source give for `CC1(C)CCC(CN2CCN(c3ccc(C(=O)NS(=O)(=O)c4cnc(OCC5COCCO5)c(C#N)c4)c(Oc4cnc5[nH]ccc5c4)c3)CC2)=C(c2ccc(Cl)cc2)C1` (stereo not shown) [Example 49, 4-(4-{[2-(4-chlorophenyl)-4,4-dimethylcyclohex-1-en-1-yl]methyl}piperazin-1-yl)-N-{[5-cyano-6-(1,4-dioxan-2-ylmethoxy)pyridin-3-yl]sulfonyl}-2-(1H-pyrrolo[2,3-b]pyridin-5-yloxy)benzamide] here?
**A.** 0.074 nM

**Q.** With `CC1(C)CCC(CN2CCN(c3ccc(C(=O)NS(=O)(=O)c4cnc(OCC5COCCO5)c(Br)c4)c(Oc4cnc5[nH]ccc5c4)c3)CC2)=C(c2ccc(Cl)cc2)C1` (stereo not shown) [Example 50, N-{[5-bromo-6-(1,4-dioxan-2-ylmethoxy)pyridin-3-yl]sulfonyl}-4-(4-{[2-(4-chlorophenyl)-4,4-dimethylcyclohex-1-en-1-yl]methyl}piperazin-1-yl)-2-(1H-pyrrolo[2,3-b]pyridin-5-yloxy)benzamide] as the compound, how does the Ki read?
**A.** 0.021 nM

**Q.** Which Ki does the source give for `CC1(C)CCC(CN2CCN(c3ccc(C(=O)NS(=O)(=O)c4ccc(OCC5CCOC(C)(C)C5)c([N+](=O)[O-])c4)c(Oc4cnc5[nH]ccc5c4)c3)CC2)=C(c2ccc(Cl)cc2)C1` (stereo not shown) [Example 51, 4-(4-{[2-(4-chlorophenyl)-4,4-dimethylcyclohex-1-en-1-yl]methyl}piperazin-1-yl)-N-({4-[(2,2-dimethyltetrahydro-2H-pyran-4-yl)methoxy]-3-nitrophenyl}sulfonyl)-2-(1H-pyrrolo[2,3-b]pyridin-5-yloxy)benzamide] here?
**A.** < 0.01 nM

**Q.** For `CC1(C)CCC(CN2CCN(c3ccc(C(=O)NS(=O)(=O)c4cc(Cl)c(NCC5CCOCC5)c(C#N)c4)c(Oc4cnc5[nH]ccc5c4)c3)CC2)=C(c2ccc(Cl)cc2)C1` [Example 52, N-({3-chloro-5-cyano-4-[(tetrahydro-2H-pyran-4-ylmethyl)amino]phenyl}sulfonyl)-4-(4-{[2-(4-chlorophenyl)-4,4-dimethylcyclohex-1-en-1-yl]methyl}piperazin-1-yl)-2-(1H-pyrrolo[2,3-b]pyridin-5-yloxy)benzamide], which Ki is on record?
**A.** 0.114 nM

**Q.** How did the Ki turn out when `CC(=O)N1CCC(Nc2ccc(S(=O)(=O)NC(=O)c3ccc(N4CCN(CC5=C(c6ccc(Cl)cc6)CC(C)(C)CC5)CC4)cc3Oc3cnc4[nH]ccc4c3)cc2[N+](=O)[O-])CC1` [Example 53, N-({4-[(1-acetylpiperidin-4-yl)amino]-3-nitrophenyl}sulfonyl)-4-(4-{[2-(4-chlorophenyl)-4,4-dimethylcyclohex-1-en-1-yl]methyl}piperazin-1-yl)-2-(1H-pyrrolo[2,3-b]pyridin-5-yloxy)benzamide] was run?
**A.** < 0.01 nM

**Q.** For `CC1(C)CCC(CN2CCN(c3ccc(C(=O)NS(=O)(=O)c4cc(F)c(NCC5CCOCC5)cc4Cl)c(Oc4cnc5[nH]ccc5c4)c3)CC2)=C(c2ccc(Cl)cc2)C1` [Example 54, N-({2-chloro-5-fluoro-4-[(tetrahydro-2H-pyran-4-ylmethyl)amino]phenyl}sulfonyl)-4-(4-{[2-(4-chlorophenyl)-4,4-dimethylcyclohex-1-en-1-yl]methyl}piperazin-1-yl)-2-(1H-pyrrolo[2,3-b]pyridin-5-yloxy)benzamide], which Ki is on record?
**A.** 2.07 nM

**Q.** Which Ki does the source give for `CC1(C)CCC(CN2CCN(c3ccc(C(=O)NS(=O)(=O)c4ccc(NCCCN5CCOCC5)c([N+](=O)[O-])c4)c(Oc4cnc5[nH]ccc5c4)c3)CC2)=C(c2ccc(Cl)cc2)C1` [Example 55, 4-(4-{[2-(4-chlorophenyl)-4,4-dimethylcyclohex-1-en-1-yl]methyl}piperazin-1-yl)-N-({4-[(3-morpholin-4-ylpropyl)amino]-3-nitrophenyl}sulfonyl)-2-(1H-pyrrolo[2,3-b]pyridin-5-yloxy)benzamide] here?
**A.** < 0.01 nM

**Q.** With `CC1(C)CCC(CN2CCN(c3ccc(C(=O)NS(=O)(=O)c4cnc(OCC5(F)CCOCC5)c(C#N)c4)c(Oc4cnc5[nH]ccc5c4)c3)CC2)=C(c2ccc(Cl)cc2)C1` [Example 56, 4-(4-{[2-(4-chlorophenyl)-4,4-dimethylcyclohex-1-en-1-yl]methyl}piperazin-1-yl)-N-({5-cyano-6-[(4-fluorotetrahydro-2H-pyran-4-yl)methoxy]pyridin-3-yl}sulfonyl)-2-(1H-pyrrolo[2,3-b]pyridin-5-yloxy)benzamide] as the compound, how does the Ki read?
**A.** 0.037 nM

**Q.** `CC1(C)CCC(CN2CCN(c3ccc(C(=O)NS(=O)(=O)c4cnc(OCCN5CCOCC5)c(C#N)c4)c(Oc4cnc5[nH]ccc5c4)c3)CC2)=C(c2ccc(Cl)cc2)C1` [Example 57, 4-(4-{[2-(4-chlorophenyl)-4,4-dimethylcyclohex-1-en-1-yl]methyl}piperazin-1-yl)-N-{[5-cyano-6-(2-morpholin-4-ylethoxy)pyridin-3-yl]sulfonyl}-2-(1H-pyrrolo[2,3-b]pyridin-5-yloxy)benzamide] was tested. Which Ki did it give?
**A.** 0.063 nM

**Q.** How did the Ki turn out when `COCCOCCS(=O)(=O)c1ccc(S(=O)(=O)NC(=O)c2ccc(N3CCN(CC4=C(c5ccc(Cl)cc5)CC(C)(C)CC4)CC3)cc2Oc2cnc3[nH]ccc3c2)cc1Cl` [Example 58, N-[(3-chloro-4-{[2-(2-methoxyethoxy)ethyl]sulfonyl}phenyl)sulfonyl]-4-(4-{[2-(4-chlorophenyl)-4,4-dimethylcyclohex-1-en-1-yl]methyl}piperazin-1-yl)-2-(1H-pyrrolo[2,3-b]pyridin-5-yloxy)benzamide] was run?
**A.** < 0.01 nM

**Q.** How did the Ki turn out when `COCCOCCS(=O)(=O)c1ccc(S(=O)(=O)NC(=O)c2ccc(N3CCN(CC4=C(c5ccc(Cl)cc5)CC(C)(C)CC4)CC3)cc2Oc2cnc3[nH]ccc3c2)cc1[N+](=O)[O-]` [Example 59, 4-(4-{[2-(4-chlorophenyl)-4,4-dimethylcyclohex-1-en-1-yl]methyl}piperazin-1-yl)-N-[(4-{[2-(2-methoxyethoxy)ethyl]sulfonyl}-3-nitrophenyl)sulfonyl]-2-(1H-pyrrolo[2,3-b]pyridin-5-yloxy)benzamide] was run?
**A.** 0.203 nM

**Q.** With `CC1(C)CCC(CN2CCN(c3ccc(C(=O)NS(=O)(=O)c4ccc(O[C@H]5CC[C@H](N6CCOCC6)CC5)c([N+](=O)[O-])c4)c(Oc4cnc5[nH]ccc5c4)c3)CC2)=C(c2ccc(Cl)cc2)C1` [Example 60, Trans-4-(4-{[2-(4-chlorophenyl)-4,4-dimethylcyclohex-1-en-1-yl]methyl}piperazin-1-yl)-N-({4-[(4-morpholin-4-ylcyclohexyl)oxy]-3-nitrophenyl}sulfonyl)-2-(1H-pyrrolo[2,3-b]pyridin-5-yloxy)benzamide] as the compound, how does the Ki read?
**A.** < 0.01 nM

**Q.** `CC1(C)CCC(CN2CCN(c3ccc(C(=O)NS(=O)(=O)c4ccc(NCCC#N)c([N+](=O)[O-])c4)c(Oc4cnc5[nH]ccc5c4)c3)CC2)=C(c2ccc(Cl)cc2)C1` [Example 62, 4-(4-{[2-(4-chlorophenyl)-4,4-dimethylcyclohex-1-en-1-yl]methyl}piperazin-1-yl)-N-({4-[(2-cyanoethyl)amino]-3-nitrophenyl}sulfonyl)-2-(1H-pyrrolo[2,3-b]pyridin-5-yloxy)benzamide] was tested. Which Ki did it give?
**A.** < 0.01 nM

**Q.** For `CC1(C)CC(c2ccc(Cl)cc2)=C(CN2CCN(c3ccc(C(=O)NS(=O)(=O)c4ccc(N[C@H]5CC[C@@H](N6CCOCC6)CC5)c([N+](=O)[O-])c4)c(Oc4cnc5[nH]ccc5c4)c3)CC2)CO1` [Example 63, Cis-4-(4-{[4-(4-chlorophenyl)-6,6-dimethyl-5,6-dihydro-2H-pyran-3-yl]methyl}piperazin-1-yl)-N-({4-[(4-morpholin-4-ylcyclohexyl)amino]-3-nitrophenyl}sulfonyl)-2-(1H-pyrrolo[2,3-b]pyridin-5-yloxy)benzamide], which Ki is on record?
**A.** < 0.01 nM

**Q.** With `CC1(C)CCC(CN2CCN(c3ccc(C(=O)NS(=O)(=O)c4ccc(N[C@H]5CC[C@H](N(CC6CC6)CC6CC6)CC5)c([N+](=O)[O-])c4)c(Oc4cnc5[nH]ccc5c4)c3)CC2)=C(c2ccc(Cl)cc2)C1` [Example 64, Trans-N-{[4-({4-[bis(cyclopropylmethyl)amino]cyclohexyl}amino)-3-nitrophenyl]sulfonyl}-4-(4-{[2-(4-chlorophenyl)-4,4-dimethylcyclohex-1-en-1-yl]methyl}piperazin-1-yl)-2-(1H-pyrrolo[2,3-b]pyridin-5-yloxy)benzamide] as the compound, how does the Ki read?
**A.** < 0.01 nM

**Q.** For `CN1CCC(CNc2ccc(S(=O)(=O)NC(=O)c3ccc(N4CCN(CC5=C(c6ccc(Cl)cc6)CC(C)(C)CC5)CC4)cc3Oc3cnc4[nH]ccc4c3)cc2[N+](=O)[O-])CC1` [Example 65, 4-(4-{[2-(4-chlorophenyl)-4,4-dimethylcyclohex-1-en-1-yl]methyl}piperazin-1-yl)-N-[(4-{[(1-methylpiperidin-4-yl)methyl]amino}-3-nitrophenyl)sulfonyl]-2-(1H-pyrrolo[2,3-b]pyridin-5-yloxy)benzamide], which Ki is on record?
**A.** < 0.01 nM

**Q.** How did the Ki turn out when `CC1(C)CCC(CN2CCN(c3ccc(C(=O)NS(=O)(=O)c4ccc(NCC5COCCN5)c([N+](=O)[O-])c4)c(Oc4cnc5[nH]ccc5c4)c3)CC2)=C(c2ccc(Cl)cc2)C1` (stereo not shown) [Example 66, 4-(4-{[2-(4-chlorophenyl)-4,4-dimethylcyclohex-1-en-1-yl]methyl}piperazin-1-yl)-N-({4-[(morpholin-3-ylmethyl)amino]-3-nitrophenyl}sulfonyl)-2-(1H-pyrrolo[2,3-b]pyridin-5-yloxy)benzamide] was run?
**A.** < 0.01 nM
